The results in this text go back to patent US4537899A, “Antiviral acylated 1,2,4-triazole derivatives” (BIOGAL Gyogyszergyar, priority 1982, dated 1985).

The nature of one data set: in vitro. It counts as cell-based. The protocol:
The antiviral testing of the compounds was carried out in two steps. First the dose-response curve of cytotoxicity was plotted, then the antiviral activity was assayed in cell cultures containing nontoxic amounts of the compound.
1. The cytotoxicity of the compounds was assayed in HeLa and RK-13 cell cultures by quantitating the protein content of the cells [S. Horvath: Cytotoxicity of drugs and diverse chemical agents to cell cultures, Toxicology, 16, 59 (1980)]. From the data of the dose-response curve the 50 percent cytotoxic concentration of the compounds was determined (CT50), i.e. the concentration inhibiting cell proliferation by 50 percent. Similarly from the data of the dose-response curve the highest concentration of the compounds where cell proliferation compared to the control is not inhibited at all, can be determined, too (0 percent cytotoxic concentration, CT0). To simplify matters, in the Table the logarithm of these values is summarized (i.e. log CT0 =1 representing a concentration of 10 μg/ml).

In the next data set the test system is Rubeola virus. In words: Antiviral effect against Rubeola virus at concentrations of CT0 (reduction of TCID50 virus titer). It counts as cell-based, Rubeola virus (strain Judith). The following applies: RK-13 cell cultures, log TCID50 difference of control and test compound.
The nature of data set [1]: Oral toxicity (LD50) in rats. The following applies: rat, in vivo.

Molecules are shown by their SMILES. Converted amounts (≈) assume the structure as drawn.

With `CSc1n[nH]c(NC(=O)c2ccccc2C)n1` [Example 47, 3-methylthio-5-(2-methyl-benzoyl-amino)-1H-1,2,4-triazole], in the data set “in vitro” (human, hela cells), the CC50 is 100 µg/mL (≈ 403 µM) and the MNTC is 39.8 µg/mL. In “in vitro” (rabbit, rk-13 cells), the CC50 is 79.4 µg/mL (≈ 320 µM) and the MNTC was 12.6 µg/mL. Further, in the data set on Rubeola virus, the “Δlog TCID50” value is reported as at least 6.8. The same compound registered an LD50 in data set [1] of 3200 mg/kg.

In “in vitro” (human, hela cells), `CSc1n[nH]c(NC(=O)c2ccccc2Br)n1` [Example 53, 3-methylthio-5-(2-bromo-benzoyl-amino)-1H-1,2,4-triazole] showed a CC50 of 126 µg/mL (≈ 402 µM) and an MNTC of 39.8 µg/mL. In “in vitro” (rabbit, rk-13 cells), the CC50 is 79.4 µg/mL (≈ 254 µM) and the MNTC is 25.1 µg/mL. Also, the “Δlog TCID50” value with Rubeola virus was at least 6.8.

With `CSc1n[nH]c(NC(=O)c2ccccc2[N+](=O)[O-])n1` [Example 61, 3-methylthio-5-(2-nitro-benzoyl-amino)-1H-1,2,4-triazole], in “in vitro” (human, hela cells), the CC50 was 39.8 µg/mL (≈ 143 µM) and the MNTC is 10 µg/mL. Further, in “in vitro” (rabbit, rk-13 cells), the CC50 was 63.1 µg/mL (≈ 226 µM) and the MNTC was 15.8 µg/mL. Moreover, the “Δlog TCID50” value with Rubeola virus is given as 3.0.

With `CSc1n[nH]c(NC(=O)c2ccccc2Cl)n1` [Example 63, 3-methylthio-5-(2-chloro-benzoyl-amino)-1H-1,2,4-triazole], the CC50 in the data set “in vitro” (human, hela cells) is 50.1 µg/mL (≈ 187 µM); in “in vitro” (rabbit, rk-13 cells) it was 79.4 µg/mL (≈ 296 µM). Besides, the MNTC is 7.94 µg/mL in the data set “in vitro” (human, hela cells) and 15.8 µg/mL in the data set “in vitro” (rabbit, rk-13 cells). Also, the “Δlog TCID50” value in the data set on Rubeola virus is reported as at least 5.3.

In “in vitro” (human, hela cells), `CSc1n[nH]c(NC(=O)c2ccccc2SC)n1` [Example 70, 3-methylthio-5-(2-methylthio-benzoyl-amino)-1H-1,2,4-triazole] gave a CC50 of 79.4 µg/mL (≈ 283 µM) and an MNTC of 20 µg/mL. Further, in “in vitro” (rabbit, rk-13 cells), the CC50 is 50.1 µg/mL (≈ 179 µM) and the MNTC is 15.8 µg/mL. Also, in the data set on Rubeola virus, the “Δlog TCID50” value is recorded as at least 5.3.

On to `CCSc1n[nH]c(NC(=O)c2ccccc2C)n1` [Example 73, 3-ethylthio-5-(2-methyl-benzoyl-amino)-1H-1,2,4-triazole], for which, in the data set “in vitro” (human, hela cells), the CC50 is 50.1 µg/mL (≈ 191 µM) and the MNTC was 7.94 µg/mL. In addition, the “Δlog TCID50” value in the data set with Rubeola virus is at least 6.0.

A word on the CC50: it is the concentration that lowers cell viability or growth by half. High values mean better tolerance by the cells, low ones harm at low concentration. The term LD50 denotes the dose expected to kill half of the subjects tested.
